Assay results taken from US7906133B2, “Optimized dosing for drug coated stents” (Boston Scientific Scimed, Inc., priority 2002, dated 2011).

Assays:
[1] = system: healthy porcine arteries; details: dosing of approximately 1.0 micrograms/mm^2 in a polymer coating
Text: Paclitaxel coated metallic stents of various doses were implanted into healthy porcine arteries to determine the effect of dosage on biological response. Dosages used were approximately 4.0, 2.0, 1.0, and 0.6 micrograms per square millimeter of the stent surface area, corresponding to approximate total dosages of 345, 175, 85, and 50 micrograms per stent. The paclitaxel was contained within a styrene-isobutylene based block copolymer applied to the stent struts.

[2] = biological response as a function of release rate from paclitaxel coated stent (FIGS. 2a-2c); format: in vivo; details: dose 1.0 micrograms/mm^2
Text: FIG. 2 and FIGS. 2a-2c illustrate the difference in biological response resulting from the difference in release rate from a paclitaxel coated stent.
(§1) Using the 1.0 micrograms/mm^2 dose as an exemplary embodiment, the effects of release rate were investigated. Metallic stents were coated with paclitaxel in a styrene-isobutylene based block copolymer carrier with the weight percent of paclitaxel in the carrier varying from approximately 8.8 to about 35%. The dose of drug applied to the stents was kept at 1.0 micrograms/mm^2, and the total drug dose was held constant by varying total coating weight.

[3] = in vitro release studies involving an aqueous environment (FIG. 2); format: physicochemical; details: dose 1.0 micrograms/mm^2
Text: as §1

[4] = weight fraction less than about 35% in polymer carrier

Structure (SMILES): CC(=O)O[C@H]1C(=O)[C@@]2(C)[C@H]([C@H](OC(=O)c3ccccc3)[C@]3(O)C[C@H](OC(=O)[C@H](O)[C@@H](NC(=O)c4ccccc4)c4ccccc4)C(C)=C1C3(C)C)[C@]1(OC(C)=O)CO[C@@H]1C[C@@H]2O [paclitaxel]
- safety and efficacy [1]: superior safety and efficacy
- fibrin accumulation ([2]; fastest release rate (FIG. 2a)): noticeable fibrin accumulation
- fibrin accumulation ([2]; slower release rates (FIGS. 2b and 2c)): did not result in this effect
- paclitaxel released within two days ([3]; 8.8% weight fraction in styrene-isobutylene based block copolymer carrier): about 2 micrograms
- paclitaxel released within two days ([3]; 35% weight fraction in styrene-isobutylene based block copolymer carrier): approximately 45 micrograms
- release profile over time ([3]; all curves in FIG. 2 (weight fractions 8.8 to 35%)): relatively rapid release rate over the first few days, followed by a slower, sustained release over up to about two weeks
- paclitaxel released within ten days [3, 4]: less than 60 micrograms
- paclitaxel released within two days [3, 4]: less than 45 micrograms
